From US7459583B2, “Method for providing a cathartic effect” (Sucampo AG, priority 2001, dated 2008)

Tested on: Male Wistar rats
Experiment: Enteropooling effect (intestinal fluid volume) in fasted rats
Assay type: in vivo, rat
Details: intestinal fluid volume 30 min after administration, dose yielding a 50% increase relative to vehicle control; for ED50: Rattus norvegicus, 0.5 h
Procedure: Male Wistar rats (Crj Wistar Rat, body weight: 180-200 g) were used. Animals were fasted for 24 hours with free access to water. 5 mL/kg of distilled water containing the compound 5, PGE1 or PGE2 was orally administrated (p.o.), or 2 mL/kg of physiological saline containing the compound 5 was injected intravenously (i.v.) to the animals. Thirty minutes after the administration, the animals were euthanized by cervical dislocation, and the abdominal cavity was opened surgically. The intestinal fluid was collected and its volume was measured. The dose of test substance yielding a 50% increase in intestinal fluid volume relative to the control group, which was received the vehicle only, was defined as the ED50 value.

Structure (SMILES)	Enteropooling ED50 (p.o. in distilled water) [µg/kg]	ED50 (iv, i.v. in physiological saline) [µg/kg]	ED50 (po, p.o. in distilled water) [µg/kg]
CCCCC[C@H](O)/C=C/[C@H]1[C@H](O)CC(=O)[C@@H]1CCCCCCC(=O)O [PGE1]	420	–	–
CCCCC[C@H](O)/C=C/[C@H]1[C@H](O)CC(=O)[C@@H]1C/C=C\CCCC(=O)O [PGE2]	130	–	–
CCCCC(F)(F)C(O)CC[C@H]1[C@H](O)CC(=O)[C@@H]1CCCCCCC(=O)O (stereo partly shown) [Compound 5, 13,14-dihydro-15RS-hydroxy-16,16-difluoro-PGE1]	–	0.88	0.6
